By melting point is commonly meant the temperature of the solid-liquid transition.

Compound `Nc1nc(Nc2ccc(Br)cc2)sc1C(=O)C1CC1` [Example 17, [4-Amino-2-(4-bromophenylamino)thiazol-5-yl]cyclopropylmethanone] returned a melting point of 204 to 206 °C.

In turn, `CCC(=O)c1sc(Nc2ccccc2)nc1N` [Example 11, 1-(4-Amino-2-phenylaminothiazol-5-yl)propan-1-one] yielded a melting point of 136 to 139 °C.

Compound `Nc1nc(Nc2ccccc2)sc1C(=O)c1csc2ccccc12` [Example 40, (4-Amino-2-phenylaminothiazol-5-yl)-benzofblthiophen-3-yl-methanone] came in with a melting point of 211 to 212 °C.

The compound `Nc1nc(Nc2ccccc2)sc1C(=O)c1cccc(OCc2ccccc2)c1` [Example 16, (4-Amino-2-phenylaminothiazol-5-yl)-(3-benzyloxyphenyl)methanone] came in with a melting point of 121 to 124 °C.

For the compound `Nc1nc(Nc2ccccc2)sc1-c1ccc([N+](=O)[O-])cc1` [Example 20, 4-Amino-2-phenylamino-5-(4-nitrophenyl)thiazole], the melting point was 217 to 219 °C.

With `CCCNc1nc(N)c(C(=O)c2cccnc2)s1` [Example 32, (4-Amino-2-propylaminothiazol-5-yl)pyridin-3-yl-methanone], the melting point fell in the range of 205 to 206 °C.

Regarding `Nc1nc(Nc2ccc(Cl)cc2)sc1C(=O)c1cccc(OCc2ccccc2)c1` [Example 54, [4-Amino-2-(4-chlorophenylamino)thiazol-5-yl]-(3-benzyloxyphenyl)methanone], the melting point lay within 173 to 174 °C.

Compound `Nc1nc(Nc2ccccc2)sc1C(=O)c1ccc(OC(F)(F)F)cc1` [Example 8, (4-Amino-2-phenylaminothiazol-5-yl)-(4-trifluoromethoxyphenyl)methanone] yielded a melting point of 170 to 173 °C.

In turn, `COc1cccc(OC)c1C(=O)c1sc(Nc2ccccc2)nc1N` [Example 37, (4-Amino-2-phenylaminothiazol-5-yl)-(2,6-dimethoxyphenyl)methanone] gave a melting point of 224 to 226 °C.

On to `Nc1nc(Nc2ccccc2)sc1C(=O)c1ccccc1[N+](=O)[O-]` [Example 25, (4-Amino-2-phenylaminothiazol-5-yl)-(2-nitrophenyl)methanone], for which the melting point was 117 to 119 °C.

In the case of `Cc1cc(C)c(C(=O)c2sc(Nc3ccccc3)nc2N)c(C)c1` [Example 35, (4-Amino-2-phenylaminothiazol-5-yl)-(2,4,6-trimethylphenyl)methanone], the melting point is 198 to 200 °C.

`Nc1nc(Nc2ccccc2)sc1C(=O)c1ccc(Cl)s1` [Example 21, (4-Amino-2-phenylaminothiazol-5-yl)-(5-chlorothiophen-2-yl)methanone] showed a melting point of 167 to 169 °C.

Compound `CCN(CC)c1ccc(C(=O)c2sc(Nc3ccccc3)nc2N)cc1` [Example 7, (4-Amino-2-phenylaminothiazol-5-yl)-(4-diethylaminophenyl)methanone] yielded a melting point of 214 to 216 °C.

For the compound `Cc1c(C(=O)c2sc(Nc3ccccc3)nc2N)sc2ccccc12` [Example 19, (4-Amino-2-phenylaminothiazol-5-yl)-(3-methylbenzo[b]thiophen-2-yl) methanone], the melting point is 165 to 167 °C.

Compound `Nc1nc(Nc2ccccc2)sc1C(=O)c1c(Cl)cccc1Cl` [Example 42, (4-Amino-2-phenylaminothiazol-5-yl)-(2,6-dichlorophenyl)methanone] registered a melting point of 245 to 246 °C.

For `COC(=O)c1sc(Nc2ccccc2)nc1N` [Example 38, 4-Amino-2-phenylaminothiazole-5-carboxylic acid methyl ester], the melting point fell in the range of 173 to 174 °C.

In turn, `CON(C)C(=O)c1sc(Nc2ccccc2)nc1N` [Example 46, 4-Amino-2-phenyiaminothiazole-5-carboxylic acid methoxymethylamide] returned a melting point of 152 to 153 °C.

Compound `Nc1nc(Nc2ccccc2)sc1C(=O)c1ccc(Cl)c(Cl)c1` [Example 18, (4-Amino-2-phenylaminothiazol-5-yl)-(3,4-dichlorophenyl)methanone] had a melting point of 195 to 198 °C.

`Nc1nc(Nc2ccccc2)sc1C(=O)c1ccc2ccccc2c1` [Example 14, (4-Amino-2-phenylaminothiazol-5-yl)naphthalen-2-ylmethanone] gave a melting point of 227 to 229 °C.

`Nc1nc(Nc2ccccc2)sc1C(=O)c1ccc(C(F)(F)F)cc1` [Example 6, (4-Amino-2-phenylaminothiazol-5-yl)-(4-trifluoromethylphenyl)methanone] gave a melting point of 201 to 205 °C.

Consider `Nc1nc(Nc2ccccc2)sc1C(=O)c1ccc(O)c(O)c1` [Example 29, (4-Amino-2-phenylaminothiazol-5-yl)-(3,4-dihydroxyphenyl)methanone], for which the melting point was in the range of 222 to 224 °C.

In turn, `COc1cccc(C(=O)c2sc(Nc3ccccc3)nc2N)c1` [Example 23, (4-Amino-2-phenylaminothiazol-5-yl)-(3-methoxyphenyl)methanone] registered a melting point of 174 to 175 °C.

In the case of `Nc1nc(Nc2ccccc2)sc1C(=O)c1cccc(F)c1` [Example 13, (4-Amino-2-phenylaminothiazol-5-yl)-(3-fluorophenyl)methanone], the melting point lay in the range of 161 to 164 °C.

`Nc1nc(Nc2ccccc2)sc1C(=O)Nc1ccccc1` [Example 45, 4-Amino-2-phenylaminothiazole-5-carboxylic acid phenylamide] yielded a melting point of 75 °C.

As for `Cc1cc(C(=O)c2sc(Nc3ccccc3)nc2N)ccc1Cl` [Example 28, (4-amino-2-phenylaminothiazol-5-yl)-(4-chloro-3-methylphenyl)methanone], the melting point is 173 to 175 °C.

`Nc1nc(Nc2ccccc2)sc1C(=O)c1ccc(F)c(F)c1` [Example 12, (4-Amino-2-phenylaminothiazol-5-yl)-(3,4-difluorophenyl)methanone]: the melting point lay within 178 to 180 °C.

For the compound `Nc1nc(Nc2ccccc2)sc1C(=O)N1CCOCC1` [Example 49, (4-Amino-2-phenylaminothiazol-5-yl)morpholin-4-ylmethanone], the melting point is 212 to 213 °C.

In the case of `COc1ccc(C(=O)c2sc(Nc3ccccc3)nc2N)c(OC)c1` [Example 30, (4-Amino-2-phenylaminothiazol-5-yl)-(2,4-dimethoxyphenyl)methanone], the melting point was in the range of 196 to 198 °C.

`Nc1nc(Nc2ccccc2)sc1C(=O)c1ccc(-c2ccccc2)cc1` [Example 15, (4-Amino-2-phenylaminothiazol-5-yl)biphenyl-4-ylmethanone] displayed a melting point of 224 to 225 °C.

The compound `Nc1nc(Nc2ccccc2)sc1C(=O)c1ccc([N+](=O)[O-])cc1` [Example 27, (4-Amino-2-phenylaminothiazol-5-yl)-(4-nitrophenyl)methanone] returned a melting point of 206 to 208 °C.

On to `COc1ccccc1C(=O)c1sc(Nc2ccccc2)nc1N` [Example 22, (4-Amino-2-phenylaminothiazol-5-yl)-(2-methoxyphenvl)methanone], for which the melting point is 196 to 200 °C.

The record behind these values is US20010039275A1, “Use of 2,4-diaminothiazole derivatives” (priority 2000, published 2001).
